Tested on: HCT-116 Firefly-luciferase reporter cells
Assay: Cellular c-MYC Reporter Assay
Format: cell-based
Conditions: Homo sapiens; untitled table following Table 8a; HCT-116 Firefly-luciferase reporter cells, 24 h; read-out: pIC50 (converted)
Description: HCT-116 Firefly-luciferase reporter cells (BPS Bioscience) were seeded in 96-well tissue-culture treated sterile plates (Greiner Bio-One) at 5e4 cells/mL in 100 μL complete growth media (McCoy's 5A+10% FBS, +1% Pen-Strep, +1% G418). Cells were incubated at 37° C. with 5% CO2 for 4-6 h then treated with 3× compound solution in 50 μL complete growth media for a final volume of 150 μL per well with 0.2% DMSO. After 24 h incubation at 37° C. with 5% CO2, plates were allowed to equilibrate to RT for 20 min then developed by addition of 100 μL ONE-Glo Luciferase detection reagent (Promega), incubated at RT for 10 min. Luminescence was recorded using a SpectraMax i3x plate reader (Molecular Devices) and analyzed using Prism GraphPad 9 software.

O=C(c1ccc(-n2nnc3cccnc32)cc1F)N(c1nccc2ccc(-c3cncnc3)cc12)[C@@H]1CCCNC1 [Example 150, (R)-4-(3H-[1,2,3]triazolo[4,5-b]pyridin-3-yl)-2-fluoro-N-(piperidin-3-yl)-N-(7-(pyrimidin-5-yl)isoquinolin-1-yl)benzamide]
IC50: 2290 nM

O=C(c1ccc(-n2nnc3cccnc32)cc1F)N(c1nccc2ccc(-c3cccnc3)cc12)[C@@H]1CCCNC1 [Example 151, (R)-4-(3H-[1,2,3]triazolo[4,5-b]pyridin-3-yl)-2-fluoro-N-(piperidin-3-yl)-N-(7-(pyridin-3-yl)isoquinolin-1-yl)benzamide]
IC50: 1020 nM

O=C(c1ccc(-n2nnc3cccnc32)cc1F)N(c1nccc2ccc(-c3ccn[nH]3)cc12)[C@@H]1CCCNC1 [Example 152, (R)—N-(7-(1H-pyrazol-5-yl)isoquinolin-1-yl)-4-(3H-[1,2,3]triazolo[4,5-b]pyridin-3-yl)-2-fluoro-N-(piperidin-3-yl)benzamide]
IC50: 468 nM

CNC(=O)OCc1ccc2ccnc(N(C(=O)c3ccc(-n4nnc5cccnc54)cc3F)[C@@H]3CCCNC3)c2c1 [Example 153, (R)-(1-(4-(3H-[1,2,3]triazolo[4,5-b]pyridin-3-yl)-2-fluoro-N-(piperidin-3-yl)benzamido)isoquinolin-7-yl)methyl methylcarbamate]
IC50: 2400 nM

O=C(c1ccc(-n2nnc3cccnc32)cc1F)N(c1nccc2ccc(CO)cc12)[C@@H]1CCCNC1 [Example 154, (R)-4-(3H-[1,2,3]triazolo[4,5-b]pyridin-3-yl)-2-fluoro-N-(7-(hydroxymethyl)isoquinolin-1-yl)-N-(piperidin-3-yl)benzamide]
IC50: 1050 nM

NC(=O)c1ccc2ccnc(N(C(=O)c3ccc(-n4nnc5cccnc54)cc3F)[C@@H]3CCCNC3)c2c1 [Example 155, (R)-1-(4-(3H-[1,2,3]triazolo[4,5-b]pyridin-3-yl)-2-fluoro-N-(piperidin-3-yl)benzamido)isoquinoline-7-carboxamide]
IC50: 5750 nM

N#Cc1ccc2ccnc(N(C(=O)c3ccc(-n4nnc5cccnc54)cc3F)[C@@H]3CCCNC3)c2c1 [Example 156]
IC50: 7080 nM

O=C(c1ccc(-n2nnc3cccnc32)cc1F)N(c1ncccc1-c1cc2cnccc2s1)[C@@H]1CCCNC1 [Example 157, (R)-4-(3H-[1,2,3]triazolo[4,5-b]pyridin-3-yl)-2-fluoro-N-(piperidin-3-yl)-N-(3-(thieno[3,2-c]pyridin-2-yl)pyridin-2-yl)benzamide]
IC50: 501 nM

O=C(c1ccc(-n2nnc3cccnc32)cc1F)N(c1nccc2sc(/C=C/CO)cc12)[C@@H]1CCCNC1 [Example 158, (R,E)-4-(3H-[1,2,3]triazolo[4,5-b]pyridin-3-yl)-2-fluoro-N-(2-(3-hydroxyprop-1-en-1-yl)thieno[3,2-c]pyridin-4-yl)-N-(piperidin-3-yl)benzamide]
IC50: 692 nM

O=C(c1ccc(-n2nnc3cccnc32)cc1F)N(c1nccc2sc(C3=CCNCC3)cc12)[C@@H]1CCCNC1 [Example 159, (R)-4-(3H-[1,2,3]triazolo[4,5-b]pyridin-3-yl)-2-fluoro-N-(piperidin-3-yl)-N-(2-(1,2,3,6-tetrahydropyridin-4-yl)thieno[3,2-c]pyridin-4-yl)benzamide]
IC50: 2630 nM

O=C(c1ccc(-n2nnc3cccnc32)cc1F)N(c1nccc2sc(-c3cn[nH]c3)cc12)[C@@H]1CCCNC1 [Example 160, (R)—N-(2-(1H-pyrazol-4-yl)thieno[3,2-c]pyridin-4-yl)-4-(3H-[1,2,3]triazolo[4,5-b]pyridin-3-yl)-2-fluoro-N-(piperidin-3-yl)benzamide]
IC50: 447 nM

O=C(c1ccc(-n2nnc3cccnc32)cc1F)N(c1nccc2sc(-c3ccncc3)cc12)[C@@H]1CCCNC1 [Example 161, (R)-4-(3H-[1,2,3]triazolo[4,5-b]pyridin-3-yl)-2-fluoro-N-(piperidin-3-yl)-N-(2-(pyridin-4-yl)thieno[3,2-c]pyridin-4-yl)benzamide]
IC50: 417 nM

O=C(c1ccc(-n2nnc3cccnc32)cc1F)N(c1nccc2sc(Br)cc12)[C@@H]1CCCNC1 [Example 162, (R)-4-(3H-[1,2,3]triazolo[4,5-b]pyridin-3-yl)-N-(2-bromothieno[3,2-c]pyridin-4-yl)-2-fluoro-N-(piperidin-3-yl)benzamide]
IC50: 776 nM

O=C(c1ccc(-n2nnc3cccnc32)cc1F)N(c1nccc2cccc(/C=C/c3cccnc3)c12)[C@@H]1CCCNC1 [Example 163, (R,E)-4-(3H-[1,2,3]triazolo[4,5-b]pyridin-3-yl)-2-fluoro-N-(piperidin-3-yl)-N-(8-(2-(pyridin-3-yl)vinyl)isoquinolin-1-yl)benzamide]
IC50: 537 nM

N#Cc1cccc2ccnc(N(C(=O)c3ccc(-n4nnc5cccnc54)cc3F)[C@@H]3CCCNC3)c12 [Example 164, (R)-4-(3H-[1,2,3]triazolo[4,5-b]pyridin-3-yl)-N-(8-cyanoisoquinolin-1-yl)-2-fluoro-N-(piperidin-3-yl)benzamide]
IC50: 97.7 nM

O=C(c1ccc(-n2nnc3cccnc32)cc1F)N(c1nccc2cccc(/C=C/CO)c12)[C@@H]1CCCNC1 [Example 165, (R,E)-4-(3H-[1,2,3]triazolo[4,5-b]pyridin-3-yl)-2-fluoro-N-(8-(3-hydroxyprop-1-en-1-yl)isoquinolin-1-yl)-N-(piperidin-3-yl)benzamide]
IC50: 170 nM

O=C(c1ccc(-n2nnc3cccnc32)cc1F)N(c1nccc2cccc(/C=C/CCO)c12)[C@@H]1CCCNC1 [Example 166, (R,E)-4-(3H-[1,2,3]triazolo[4,5-b]pyridin-3-yl)-2-fluoro-N-(8-(4-hydroxybut-1-en-1-yl)isoquinolin-1-yl)-N-(piperidin-3-yl)benzamide]
IC50: 141 nM

COC(=O)c1cccnc1N(C(=O)c1ccc(-n2nnc3cccnc32)cc1F)[C@@H]1CCCNC1 [Example 167, methyl (R)-2-(4-(3H-[1,2,3]triazolo[4,5-b]pyridin-3-yl)-2-fluoro-N-(piperidin-3-yl)benzamido)nicotinate]
IC50: 661 nM

Cc1cccc2ccnc(N(C(=O)c3ccc(CO)cc3F)[C@@H]3CCCNC3)c12 [Example 168, (R)-2-fluoro-4-(hydroxymethyl)-N-(8-methylisoquinolin-1-yl)-N-(piperidin-3-yl)benzamide]
IC50: 5250 nM

Cc1cccc2ccnc(N(C(=O)c3ccc(Nc4nc5ccccn5n4)cc3F)[C@@H]3CCCNC3)c12 [Example 169, (R)-4-([1,2,4]triazolo[1,5-a]pyridin-2-ylamino)-2-fluoro-N-(8-methylisoquinolin-1-yl)-N-(piperidin-3-yl)benzamide]
IC50: 316 nM

Cc1cccc2ccnc(N(C(=O)c3ccc(-n4nnc5ccc(C(N)=O)nc54)cc3F)[C@@H]3CCCNC3)c12 [Example 170, (R)-3-(3-fluoro-4-((8-methylisoquinolin-1-yl)(piperidin-3-yl)carbamoyl)phenyl)-3H-[1,2,3]triazolo[4,5-b]pyridine-5-carboxamide]
IC50: 56.2 nM

Cc1cccc2ccnc(N(C(=O)c3ccc(-n4nnc5ccc(-c6ccccc6)nc54)cc3F)[C@@H]3CCCNC3)c12 [Example 171, (R)-2-fluoro-N-(8-methylisoquinolin-1-yl)-4-(5-phenyl-3H-[1,2,3]triazolo[4,5-b]pyridin-3-yl)-N-(piperidin-3-yl)benzamideamide]
IC50: 288 nM
